Bounds are passed on as bounds.

Experiment [1] deals with T1, Interstitial collagenase (Homo sapiens, UniProt P03956).
T1 sequence (P03956 whole entry): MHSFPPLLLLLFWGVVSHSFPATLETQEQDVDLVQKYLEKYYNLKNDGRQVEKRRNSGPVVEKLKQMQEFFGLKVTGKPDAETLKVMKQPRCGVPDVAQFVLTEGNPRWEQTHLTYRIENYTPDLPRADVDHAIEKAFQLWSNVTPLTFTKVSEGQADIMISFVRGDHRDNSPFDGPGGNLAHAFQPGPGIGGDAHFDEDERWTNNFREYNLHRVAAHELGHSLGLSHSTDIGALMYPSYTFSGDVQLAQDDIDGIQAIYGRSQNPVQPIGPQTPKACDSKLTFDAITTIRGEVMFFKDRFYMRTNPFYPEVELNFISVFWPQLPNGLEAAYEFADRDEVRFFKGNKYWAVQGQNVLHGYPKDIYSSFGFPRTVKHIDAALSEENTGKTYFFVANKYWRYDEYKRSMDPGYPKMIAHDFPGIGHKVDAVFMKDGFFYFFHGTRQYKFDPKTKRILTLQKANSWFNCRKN
The experiment can be described thus: Inhibition of matrix metalloprotease-1, Collagenase-1.

Experiment [2] has as its target Stromelysin-1 (Homo sapiens, UniProt P08254). The experiment can be described thus: Inhibition of matrix metalloprotease-3, stromelysin-1.
For experiment [3], the target named is Matrix metalloproteinase-9 (Homo sapiens, UniProt P14780). Kind of experiment: Inhibition of matrix metalloprotease-9, gelatinase-B.
Sequence of Matrix metalloproteinase-9 (P14780 whole entry): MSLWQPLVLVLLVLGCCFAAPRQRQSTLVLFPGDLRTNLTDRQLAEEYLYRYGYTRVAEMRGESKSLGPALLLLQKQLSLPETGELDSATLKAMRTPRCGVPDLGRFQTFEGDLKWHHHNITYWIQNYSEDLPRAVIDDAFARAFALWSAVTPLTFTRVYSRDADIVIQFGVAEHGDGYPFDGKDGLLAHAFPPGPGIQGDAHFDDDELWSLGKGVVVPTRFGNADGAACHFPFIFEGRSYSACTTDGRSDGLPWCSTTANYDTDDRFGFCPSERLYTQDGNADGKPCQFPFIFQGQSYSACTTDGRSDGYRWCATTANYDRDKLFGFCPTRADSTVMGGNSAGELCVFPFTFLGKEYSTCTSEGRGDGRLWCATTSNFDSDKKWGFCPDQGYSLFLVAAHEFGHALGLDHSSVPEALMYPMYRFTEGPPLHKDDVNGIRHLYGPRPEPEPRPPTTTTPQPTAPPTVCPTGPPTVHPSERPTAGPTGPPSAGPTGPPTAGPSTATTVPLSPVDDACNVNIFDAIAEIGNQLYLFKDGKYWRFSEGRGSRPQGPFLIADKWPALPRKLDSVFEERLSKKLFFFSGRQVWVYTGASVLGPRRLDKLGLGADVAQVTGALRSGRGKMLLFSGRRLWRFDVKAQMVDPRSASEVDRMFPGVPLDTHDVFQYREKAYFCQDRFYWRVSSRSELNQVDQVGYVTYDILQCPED

Sequence of Stromelysin-1 (P08254 whole entry): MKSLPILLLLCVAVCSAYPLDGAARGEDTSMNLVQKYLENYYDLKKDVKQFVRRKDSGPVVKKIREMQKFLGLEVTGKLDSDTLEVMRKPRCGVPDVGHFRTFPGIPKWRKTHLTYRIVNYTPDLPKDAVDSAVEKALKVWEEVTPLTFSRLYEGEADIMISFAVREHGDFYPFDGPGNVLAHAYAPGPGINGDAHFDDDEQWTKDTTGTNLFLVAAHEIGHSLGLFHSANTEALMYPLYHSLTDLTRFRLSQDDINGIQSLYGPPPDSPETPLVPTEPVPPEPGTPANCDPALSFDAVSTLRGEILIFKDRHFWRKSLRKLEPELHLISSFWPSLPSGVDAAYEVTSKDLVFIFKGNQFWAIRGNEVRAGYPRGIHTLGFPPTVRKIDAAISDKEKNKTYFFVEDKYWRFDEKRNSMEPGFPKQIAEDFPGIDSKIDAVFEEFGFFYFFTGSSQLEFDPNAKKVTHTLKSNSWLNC

As to `CCCCCCC[C@H](C[C@@H](O)CS)C(=O)N[C@H](C(=O)NC)C(C)(C)C`, the half-inhibitory concentration (IC50) in experiment [1] stood at 140 nM; in experiment [2] it was 430 nM; in experiment [3], 12 nM.

In the case of `CNC(=O)[C@@H](NC(=O)[C@@H](CC(=O)NO)CC(C)C)C(C)(C)C` [RO-319790], it took 5 nM to reach half-maximal inhibition in experiment [1] (IC50).

In the case of `CCCCCCC[C@H](CC(=O)CS)C(=O)N[C@@H](CC(C)C)C(=O)NC(=O)C(CC(C)C)NCC` (stereo not given in full), the figures for the IC50 in experiment [1], in experiment [2] and in experiment [3] were greater than 10000 nM, 36 nM and 20 nM, respectively.

Consider `CCCCCCC[C@H](C[C@H](O)CS)C(=O)N[C@@H](CC(C)C)C(=O)NC(=O)C(CC(C)C)NCC` (stereo not given in full), for which the IC50 in experiment [1] is greater than 4000 nM; in experiment [2], 39 nM; in experiment [3], 24 nM.

Regarding `CCCCCCC[C@H](C[C@H](O)CS)C(=O)N[C@H](C(=O)NC)C(C)(C)C`, the half-inhibitory concentration (IC50) in experiment [1] is 5 nM; in experiment [2], 9 nM; in experiment [3] it was 0.14 nM.

`CCCCCCC[C@H](CC(=O)CS)C(=O)N[C@H](C(=O)NC)C(C)(C)C`: the figures for the IC50 in experiment [1], in experiment [2] and in experiment [3] were 10 nM, 8 nM and 0.14 nM, respectively.

For the compound `CNC(=O)[C@@H](NC(=O)[C@@H](CC(=O)CS)CC(C)C)C(C)(C)C`, the IC50 came to 11 nM in experiment [1], 480 nM in experiment [2] and 8 nM in experiment [3].

On to `CNC(=O)[C@@H](NC(=O)[C@H](CC(C)C)C[C@@H](O)CS)C(C)(C)C`, for which the 50% inhibitory concentration (IC50) was 46 nM in experiment [1], 3700 nM in experiment [2] and 250 nM in experiment [3].

As for `CNC(=O)[C@@H](NC(=O)[C@H](CC(C)C)C[C@H](O)CS)C(C)(C)C`, the IC50 in experiment [1] was 11 nM; in experiment [2], 470 nM; in experiment [3] it was 8 nM.

For orientation: IC50 means the concentration that gives 50% inhibition. Read a low IC50 as higher potency.
